Measured values reported in ChEMBL document CHEMBL5260821, “2-Aminothiophene scaffolds: Diverse biological and pharmacological attributes in medicinal chemistry” (Eur J Med Chem, 2017).

Key:
T47D = assay: Antiproliferative activity against human T47D cells assessed as reduction in cell viability measured for 48 hr by MTT assay; type: functional, cell-based
A549 = assay: Antiproliferative activity against human A549 cells assessed as reduction in cell viability measured for 48 hr by MTT assay; type: functional, cell-based; details: A549, 48 h
HCT-15 = assay: Antiproliferative activity against human HCT-15 cells assessed as reduction in cell viability measured for 48 hr by MTT assay; type: functional, cell-based; details: HCT-15, 48 h
Influenza A virus [1] = assay: Antiviral activity against Influenza A virus A/WSN/33(H1N1) strain; type: functional, organism-based
Influenza A virus [2] = assay: Antiviral activity against Influenza A virus H3N2 subtype; type: functional, organism-based
Influenza A virus [3] = assay: Antiviral activity against influenza A virus; type: functional, organism-based
Staphylococcus aureus = assay: Antibacterial activity against Staphylococcus aureus ATCC 6538 assessed as inhibition zone; type: functional
Escherichia coli = assay: Antibacterial activity against Escherichia coli ATCC 11229 assessed as inhibition zone; type: functional
Candida albicans = assay: Antifungal activity against Candida albicans ATCC 10231 assessed as inhibition zone; type: functional
Neprilysin = Neprilysin (Homo sapiens, UniProt P08473); assay: Partial agonist activity at human neprilysin expressed in CHP-212 cells; type: cell-based
Sequence of Neprilysin (P08473 whole entry): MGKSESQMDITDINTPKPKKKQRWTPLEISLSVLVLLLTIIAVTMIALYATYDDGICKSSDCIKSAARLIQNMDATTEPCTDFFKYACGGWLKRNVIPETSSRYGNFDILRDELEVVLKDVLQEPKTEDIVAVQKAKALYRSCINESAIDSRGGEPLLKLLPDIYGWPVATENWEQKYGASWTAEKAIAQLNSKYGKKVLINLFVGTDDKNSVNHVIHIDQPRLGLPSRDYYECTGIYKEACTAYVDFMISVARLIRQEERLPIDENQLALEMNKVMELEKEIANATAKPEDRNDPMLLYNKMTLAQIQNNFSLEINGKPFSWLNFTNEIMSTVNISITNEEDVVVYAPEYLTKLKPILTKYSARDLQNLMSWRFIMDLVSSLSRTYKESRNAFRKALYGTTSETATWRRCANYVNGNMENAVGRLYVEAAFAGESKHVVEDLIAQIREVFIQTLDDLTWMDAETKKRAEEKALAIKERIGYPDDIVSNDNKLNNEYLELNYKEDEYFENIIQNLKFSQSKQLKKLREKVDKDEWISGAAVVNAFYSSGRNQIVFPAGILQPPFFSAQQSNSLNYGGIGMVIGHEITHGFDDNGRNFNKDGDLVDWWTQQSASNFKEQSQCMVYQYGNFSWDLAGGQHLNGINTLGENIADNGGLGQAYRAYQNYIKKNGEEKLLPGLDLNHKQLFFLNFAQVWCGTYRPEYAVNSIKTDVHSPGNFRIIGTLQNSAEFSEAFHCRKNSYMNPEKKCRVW

PC-3 = assay: Antiproliferative activity against human PC-3 cells assessed as reduction in cell viability measured for 48 hr by MTT assay; type: functional, cell-based; details: PC-3, 48 h
CCRF-CEM = assay: Antiproliferative activity against human CEM cells assessed as reduction in cell viability; type: functional, cell-based
HeLa [4] = assay: Antiproliferative activity against human HeLa cells assessed as reduction in cell viability at 10 to 50 uM relative to control; type: functional; details: dose 10-50 µM
PANC-1 [5] = assay: Antiproliferative activity against human PANC-1 cells assessed as reduction in cell viability at 25 to 50 uM relative to control; type: functional; details: dose 25-50 µM
HeLa [6] = assay: Induction of cell cycle arrest in human HeLa cells assessed as accumulation of cells in subG1 phase; type: functional
PANC-1 [7] = assay: Induction of cell cycle arrest in human PANC-1 cells assessed as accumulation of cells in G0/G1 phase; type: functional

`CCOC(=O)c1c(N)sc(/N=C/c2ccc([N+](=O)[O-])o2)c1C(=O)OCC` gave an IC50 (T47D) of 21.4 µM, an IC50 (A549) of 22.8 µM and an IC50 (HCT-15) of 10.2 µM. It also gave an IC50 (Influenza A virus [1]) of 0.94 µM, an IC50 (Influenza A virus [2]) of 2.4 µM and an IC50 (Influenza A virus [3]) of 0.79 µM. The “inhibition zone (IZ)” value (Staphylococcus aureus) was 22 mm, the “inhibition zone (IZ)” value (Escherichia coli) was 16 mm and the “inhibition zone (IZ)” value (Candida albicans) was over 22 mm.
`CCCN(CC(F)(F)F)c1cc(Br)c(C#N)s1` showed an EC50 (Neprilysin) of 0.005 µM.
For `CCOC(=O)c1c(N)sc(/N=C/c2ccc([N+](=O)[O-])s2)c1C(=O)OCC`, the IC50 (A549) was 1.3 µM, the IC50 (PC-3) was 10.9 µM and the IC50 (HCT-15) was 6.1 µM. For the same compound, the IC50 (Influenza A virus [1]) was 3.56 µM, the IC50 (Influenza A virus [2]) was 3.72 µM and the IC50 (Influenza A virus [3]) was 10.5 µM.
`COC(=O)c1cc(CSCc2ccc(C(C)C)cc2)sc1N` was tested, and the IC50 (CCRF-CEM) was 0.46 µM.
`COc1ccc(Br)cc1/C=N/c1sc2c(c1C#N)CCCCC2` gave an Activity (HeLa [4]) of 35%, an Activity (PANC-1 [5]) of 50% and an Activity (HeLa [6]) of 6.2%. For the same compound, the Activity (PANC-1 [7]) was 28.2%.
With `N#Cc1c(/N=C/c2ccc(F)cc2)sc2c1CCCC2` the Activity (HeLa [4]) was 50%, the Activity (PANC-1 [5]) was 68% and the Activity (HeLa [6]) was 12.05%. For the same compound, the Activity (PANC-1 [7]) was 9.3%.
`CCc1ccc(CSCc2cc(C(=O)OC)c(N)s2)cc1` was tested, and the IC50 (CCRF-CEM) was 0.34 µM.
